How the values were obtained:
[1] = Reducing power antioxidant assay; details: compared to SDG
Method: The antioxidant activity SDG was determined by assessing its reducing power, an activity related to its ability to reduce an oxidized atom or molecule and compared with that of the natural antioxidants ascorbic acid and alpha-tocopherol (Panel A).

[2] = DPPH free radical scavenging activity; details: compared to ascorbic acid and alpha-tocopherol
HIV-1 jago [3] = assay: HIV replication in PBMCs (p24 ELISA); type: cell-based; details: dose dependent manner; 0.1, 1, 10, 100 μM SDG
Method: (§1) PBMCs can be prepared from laboratory donors. PBMCs are activated with […] phytohemagglutinin for 3 days, and infected with HIV-1 jago, a strain of HIV1 isolated from the CSF of a patient with HAD. On the day of infection, cultures is treated with SDG over a range of doses (0.1, 1, 10, 100 μM SDG), vehicle, or left untreated. Viral replication is assessed by p24 ELISA at 3, 6, 9, 12 and 15 days post-infection. Cell viability of infected PBMCs can be monitored by trypan blue exclusion and p24 levels are normalized to the number of viable cells. The experiment is repeated in 3 donors. MDMs can be prepared as described previously and infected with HIV-1 jago. On the day of inoculation with HIV-1 jago cultures can be treated with 0.1, 1, 10 and 100 μM SDG, vehicle or left untreated. Viral replication is assessed on days 3, 6, 9, 12, and 15 by p24 ELISA. Cell viability is determined by trypan blue exclusion and p24 levels is normalized to the number of viable cells. The experiment is replicated in 3 donors.

rat neuronal cultures = assay: MTT viability, indirect treatment (media from SDG-treated macrophages); type: cell-based; details: media from HIV-1 or Mock infected macrophages treated with SDG, 24 hours
Method: We performed a MTT (3-(4,5-dimethylthiazol-2-yl)-2,5-diphenyltetrazolium bromide) assay to measure the viability of cells through the production of insoluble formazan. […]. In these indirect studies media from HIV-1 infected or Mock infected macrophages treated with SDG was applied to neuronal cultures for 24 hours. Afterward cell viability was determined by the MTT assay which […] and is an indicator of mitochondrial activity. […] This study is a clear indicator of the non-neurotoxic effects of SDG in vitro.

cortical rat neurons = assay: Neurotoxicity and oxidative stress (MAP2, DHE) from HIV-infected macrophage supernatants; type: cell-based
Method: Neurons (green) were pre-treated with 50 μM SDG 1 hour prior to exposure to HIV-infected macrophage supernatants (HIVMDM) at dilutions of 1:40 and 1:80. In the absence of SDG, there is marked reduction in MAP2 immunostaining (green) indicating neuronal damage and death (A). Labeling with dihydroethidium (red) indicates the presence of oxidative stress, which is apparent in HIVMDM treated cultures. Nuclei are labeled blue by DAPI. […] MAP2 levels are quantified in top graph (# p<0.01 compared to UT, * p<0.05 compared to respective HIV MDM). Oxidative stress (red-DHE) is quantified in bottom graph (# p<0.001, compared to HIVMDM1:40, p<0.05, compared to HIVMDM1:80, $ p<0.01 compared with UT.
Primary rat neuroglial cultures (FIG. 10, Panel A) and primary rat neuronal cultures (FIG. 10, Panel B) were treated with Supernatants from HIV-Infected macrophages (Jago) or Mock-infected macrophages (Mock) for 24 hours in the presence or absence of 25 or 50 μM SDG given 60 minutes prior to addition of the HIVMDM. Prior to fixation, cells were incubated with Dihydroethidium (DHE-red) for 30 minutes. Following fixation cells were stained for the neuronal specific marker MAP2 (green) and DAPI (blue). Representative images for each treatment are shown. DHE Fluorescence intensity was quantified from 6 fields for 3 slides per treatment, averaged, and normalized to the area of DAPI. Graphs of the average DHE staining intensity/DAPI area are plotted for each treatment group. The p values were generated using student's two-tailed t-test for equal variance. Bars on graphs represent median values of quantification by ImageJ algorithm. *P<0.05 vs Untreated (UT)-control group and Mock-control group; #P<0.05 vs Jago 1:40 treatment group. The results were obtained from at least three independent experiments.

[4] = system: brain derived neurotrophic factor (BDNF); details: SDG by oral gavage; cited from earlier work
[5] = system: primary rat cortical neurons; assay: MAP2 cell-based ELISA of neuronal death and damage after ART compounds
Method: (§2) Relative neuronal damage as indicated by MAP2 cell-based ELISA in neurons treated with the indicated concentrations of ART compounds, ritonavir (RIT), Saquinavir (Sag), and Zidovudine (AZT). Cells were treated for 72 hours with ritonavir (10 μM or 25 μM), ritonavir (10 μM)+Saquinivir (1 μM), AZT (25 μM)+ritonavir+Saquinavir. One hour before and two hours after cART drug treatment, half of the wells of a 96 well plate of neuroglial cultures were also treated with secoisolariciresinol diglucoside (SDG) (25 μM, 50 μM, or 100 μM) where indicated. 72 hours later, a MAP2 cell-based ELISA assay was used to quantify neuronal death and damage. Untreated cultures in addition to vehicle (0.08% DMSO) treated cultures with and without SDG were used as controls. The value for untreated cultures was set to 100%, and SDG and cART treated bands are expressed as a percent change from untreated.
as §2, with “Cells” for “Relative neuronal damage as indicated by MAP2 cell-based ELISA in neurons treated with the indicated concentrations of ART compounds, ritonavir (RIT), Saquinavir (Sag), and Zidovudine (AZT). Cells”, “SDG” for “secoisolariciresinol diglucoside (SDG)”, “μM).” for “μM) where indicated.”

CXCR4 = assay: Western blot of CXCR4 expression on MDM; type: cell-based
Method: (§3) The objective of this study was to elucidate the modulatory effects of flaxseed lignans on macrophage expression of coreceptors through western blotting.
Expression of HIV coreceptor CXCR4 on macrophage derived monocytes treated with SDG was evaluated. Following the same treatment protocol, MDM were treated with SDG for 0 and 6 hours. […] 25 μM to the 25 μM SDG treatment.

[6] = system: rat cortical neuroglial cultures; assay: MTT viability, direct SDG treatment; type: cell-based; details: 24 hours with SDG
Method: In order to assess the effects on SDG in terms of mitochondrial respiration as an indicator of viability, an MTT assay was performed with rat cortical neuroglial cultures that were treated for 24 hours with SDG.

[7] = SDG by oral gavage; cited from earlier work
Nrf2 = assay: Endogenous antioxidant response expression by qRT-PCR and immunoblot; type: cell-based; details: primary rat cortical neurons, SDG 50 μM, 2 or 48 hours
Method: Specifically, protein and RNA from primary rat cortical neurons treated with SDG at 50 μM or left untreated for 2 or 48 hours were analyzed for changes in expression of the endogenous antioxidant response by qRT-PCR and immunoblot.
Protein and RNA from primary rat cortical neurons treated with SDG at 50 μM or left untreated for 2 or 48 hours were analyzed for changes in expression of the endogenous antioxidant response by qRT-PCR and immunoblot.

[8] = system: nrf2-regulated protective enzymes; assay: qRT-PCR of antioxidant enzyme gene expression in brain tissues after oral SDG; type: in vivo, mice
Method: Indeed, the 1.0 mg dose was associated with a near 2-fold boost of hemeoxygenase 1 expression (HO-1) and quinone oxidoreductase 1 (NQO-1) expression in brain tissues (FIG. 14, Panel B).

HIV-1 jago [9] = assay: HIV replication in monocyte-derived macrophages (RT activity, p24); type: cell-based; details: for viral replication as indicated by RT activity / viral replication as indicated by p24 concentrations: primary human MDMs, 9 days post-infection, ritonavir 0.1 μM, SDG 50 μM
Method: Primary human MDMs were infected with an HIV isolated from the CSF of a patient with confirmed HAND yielding robust reverse transcriptase activity (A) and p24 concentrations (B) after 9 days post-infection. […] Results have been confirmed in 2 distinct donors, 1 donor is shown. Three technical replicates are analyzed for RT assays (n=3, * p<0.0001).
as §1
To assess this effect, primary peripheral blood monocytes were harvested from healthy donors and differentiated them into macrophages in vitro. Monocytes were infected with the primary HIV isolate, jago. One day after infection, macrophages were treated with 25 μM or 50 μM SDG, the antiretroviral compound ritonavir (0.1 μM RIT), SDG and ritonavir together, the ritonavir vehicle, DMSO, or with no additional treatment. Supernatant from these macrophages was harvested 3, 6, 9, 12, and 15 days post infection and assayed for HIV reverse transcriptase activity (FIG. 5A, bar graph and FIG. 5B, Line graph).

[10] = at least 500 mg SDG/day for approximately 8 weeks; cited from earlier work
CCR5 = assay: Western blot of CCR5 expression on MDM; type: cell-based; details: SDG for 0 and 6 hours, time-dependent
Method: as §3
Expression of HIV co-receptor CCR5 on macrophage derived monocytes treated with SDG was evaluated. Following the same treatment protocol, MDM were treated with SDG for 0 and 6 hours.

Nrf2/ARE = Nrf2/ARE activation in non-neuronal cell types; type: cell-based; details: lung epithelial, endothelial and fibroblasts
[11] = 50 μM SDG 1 hour prior to HIVMDM 1:40 and 1:80
[12] = 1.0 mg SDG oral gavage once daily for 4 days, 4 hours post final feeding

Cc1c(C)c2c(c(C)c1O)CC[C@@](C)(CCC[C@H](C)CCC[C@H](C)CCCC(C)C)O2 [A-toc, alpha-tocopherol]
concentration needed for half-maximal response (EC50) in reducing power, relative to SDG [1]: ~3 fold

O=C1O[C@H]([C@@H](O)CO)C(O)=C1O [AA, ascorbic acid]
concentration needed for half-maximal response (EC50) in reducing power, relative to SDG [1]: ~3 fold

COc1cc(C[C@@H](CO[C@@H]2O[C@H](CO)[C@@H](O)[C@H](O)[C@H]2O)[C@H](CO[C@@H]2O[C@H](CO)[C@@H](O)[C@H](O)[C@H]2O)Cc2ccc(O)c(OC)c2)ccc1O [SDG, secoisolariciresinol diglucoside]
DPPH free radical scavenging activity [2]: far superior antioxidant activity
HIV replication in PBMCs (HIV-1 jago [3]): attenuates HIV replication
neuronal cell viability (MTT), indirect treatment (rat neuronal cultures): no change in neuronal cell viability
neuron loss (MAP2 immunostaining) (cortical rat neurons; [11]): protected against neuron loss
oxidative stress by DHE (cortical rat neurons; [11]): reduced accumulation of oxidative stress
protection from HIV-stimulated macrophage-induced neurotoxicity (cortical rat neurons; 25 or 50 μM SDG 60 minutes prior to HIVMDM, 24 hours, presence or absence of glia): protects neurons
DHE staining (free radical production) in HIV-Jago-treated neurons (cortical rat neurons; presence and absence of glia): reduced DHE staining
cortex levels of brain derived neurotrophic factor (BDNF) [4]: increase
attenuation of neuronal damage in response to ART compounds ([5]; 25 μM SDG 1 hour prior to ART compounds alone or in combination): significantly attenuated neuronal damage
reduction of ART-induced neuronal damage by combination therapy ([5]; SDG at 25 and 50 μM): reduced ART-induced neuronal damage
HIV coreceptor CXCR4 expression on MDM, dose dependence (CXCR4; 12 hour time point, 6. 25 μM to 25 μM SDG): dose-dependent decrease
HIV coreceptor CXCR4 expression on MDM (CXCR4; between the 0 and 6 hour time points, time-dependent): significant decrease
neuronal cell viability (MTT), direct treatment [6]: no change in neuronal cell viability
chronic stress as measured by immobility time induced by tail suspension stress [7]: decreased chronic stress
induction of Nrf2 and its targets HO1, NQO1, GST1 (Nrf2): induced Nrf2 in neurons, as well as its prominent targets: HO1, NQO1, and GST1
hemeoxygenase 1 (HO-1) expression in brain tissues [8, 12]: ~2 fold
quinone oxidoreductase 1 (NQO-1) expression in brain tissues [8, 12]: ~2 fold
crossing of the blood-brain barrier ([8]; SDG given orally to mice): crosses the blood-brain barrier
effect of SDG on ritonavir inhibition of HIV replication (reverse transcriptase activity) (HIV-1 jago [9]; 25 or 50 μM SDG with 0.1 μM ritonavir, 3-15 days post infection): did not block the ability of ritonavir to inhibit HIV replication
HIV replication (reverse transcriptase activity), SDG without ritonavir (HIV-1 jago [9]; 25 or 50 μM SDG, 3-15 days post infection): blocked HIV replication
viral replication in HIV-infected macrophages compared with ritonavir (HIV-1 jago [9]; FIG. 2): reduced viral replication to levels akin to the HIV protease inhibitor, ritonavir
HIV replication in MDMs (HIV-1 jago [9]; dose dependent manner, 0.1, 1, 10, 100 μM SDG): attenuates HIV replication
viral replication as indicated by RT activity (HIV-1 jago [9]): attenuated viral replication
viral replication as indicated by p24 concentrations (HIV-1 jago [9]): attenuated viral replication
effect on cardiovascular risk factors in humans [10]: positive effect
HIV co-receptor CCR5 expression on MDM (CCR5): significant decrease
activation of Nrf2/ARE, inducing NQO1 and HO1 (Nrf2/ARE): activates the Nrf2/ARE

CC(C)c1nc(CN(C)C(=O)N[C@H](C(=O)N[C@@H](Cc2ccccc2)C[C@H](O)[C@H](Cc2ccccc2)NC(=O)OCc2cncs2)C(C)C)cs1 [ritonavir, reference compound]
viral replication as indicated by RT activity (HIV-1 jago [9]): attenuated viral replication
viral replication as indicated by p24 concentrations (HIV-1 jago [9]): attenuated viral replication

CC(C)(C)NC(=O)[C@@H]1C[C@@H]2CCCC[C@@H]2CN1C[C@@H](O)[C@H](Cc1ccccc1)NC(=O)[C@H](CC(N)=O)NC(=O)c1ccc2ccccc2n1 [saquinavir, reference compound]
neuronal damage as indicated by loss of MAP2 staining ([5]; ART compounds alone and in combinations, 72 hours): significant neuronal damage

From US9987321B2, “Use of flaxseed and flaxseed derivatives for treatment of neurological disorders and viral diseases” (The Trustees of the University of Pennsylvania, priority 2012, dated 2018)
